Experimental data: patent publication US11040958B2, “Triazole antimicrobial derivative, pharmaceutical composition and use thereof” (priority 2017, dated 2021)
Read-outs that look alike come from different tables or passages of the source.

Experiments:
[1] = Solubility test in deionized water (HPLC, external calibration); format: physicochemical
Protocol: Experimental condition: 25±2° C.
Dissolving medium: deionized water
Experimental method: 1 mg voriconazole and appropriate amount of each compound were weighed, placed in 1 ml deionized water separately, shaken vigorously for 30 s every 5 mins for 30 mins.

[2] = In vitro metabolic stability in human plasma; format: in vitro ADME; settings: 37°C, compound 10 μM
Protocol: (§1) The two reaction systems were set up three samples in parallel, while each sample was taken in an amount of 100 μL at 1 min, 2 mins, 5 mins, 15 mins, and 30 mins after the reaction, added to the centrifuge tube containing 400 μL of 0° C. pre-cooled internal standard working fluid and terminated the reaction. The sample was mixed by vortex for 1 min, centrifuged at 10,000×g for 10 mins in a 4° C. pre-cooled high-speed centrifuge. The supernatant was taken for HPLC detection.

[3] = In vitro metabolic stability in human intestinal S9; format: in vitro ADME; settings: 37°C, S9 1 mg/mL, compound 10 μM, NADPH regeneration system
Protocol: as §1, with “detection. […] Concentration of mother liquor of compounds: 1 mM […] [table]” for “detection.”

[4] = In vitro metabolic stability in rat plasma; format: in vitro ADME; settings: 37°C, compound 10 μM
Protocol: as §1, with “detection. […] Concentration of mother liquor of compounds: 1 mM […]” for “detection.”

[5] = In vitro metabolic stability in rat intestinal S9; format: in vitro ADME; settings: 37°C, S9 1 mg/mL, compound 10 μM, NADPH regeneration system
Protocol: as §1, with “detection. […] Concentration of mother liquor of compounds: 1 mM […] [table]” for “detection.”

[6] = Pharmacokinetics after single intravenous administration in rats (plasma voriconazole)
Protocol: Dosage for administration: 2.5 mg/kg (calculated as voriconazole)
Dosing volume for administration: 2.5 ml/kg
Drug concentration: 1 mg/mL (calculated as voriconazole)
Route of administration: tail vein injection Experimental animals: SD rats, SPF grade, weighing 180-220 g, half male and half female; the SD rats were randomized into groups of 6 animals each, three males and three females in each group. Experimental method: Blood samples were collected at different time points after tail vein administration, and the plasma concentrations of voriconazole were measured.

[7] = Pharmacokinetics after single gastrointestinal (gavage) administration in rats (plasma voriconazole); format: in vivo; settings: SD rats, 2.5 mg/kg (calculated as voriconazole)
Protocol: Dosing volume for administration: 10 ml/kg
Solvent medium for administration: except for the positive voriconazole group using CMC-Na, the other groups using normal saline
Route of administration: gavage

[8] = system: Candida albicans ATCC10231; assay: Systemic fungal infection in mice, intravenous administration, survival; format: in vivo; settings: ICR mice, tail vein, 5 mg/kg (calculated as voriconazole) once daily for 5 days
Protocol: (§2) ICR mice, weighing 18-22 g, male, provided by the Hubei Experimental Animal Center.
(§3) The standard strain Candida albicans was purchased from the American Type Culture Collection, and the strain number was ATCC10231.
Before the experiment, a small amount of Candida albicans was picked from the SDA medium preserved at 4° C. by inoculation circle, and inoculated into 1 ml YPD (Yeast Extract Peptone Dextrose Medium, the same below) culture medium, under shake cultivation at 30° C., 200 rpm, activated for 16 hours to make the fungus in the late stage of the exponential growth phase. Blood cell counting plate was used to count. The concentration of the broth was adjusted to 1*10^3-5*10^3 CFU/ml with RPMI1640 (Roswell Park Memorial Institute 1640, the same below) culture medium. The Candida albicans monoclone on the SDA plate was picked and inoculated into 1 ml YPD medium, cultured at 35° C., 200 rpm for 16 hours to the late exponential growth phase, 1% of which was then inoculated in fresh medium for 6 hours, centrifuged at 1000×g for 5 mins, washed three times with saline until the supernatant was colorless, while hemocytometer was used to count. The cell concentration was adjusted to 5*10^6/ml. The tail vein injection of 0.1 ml/10 g was carried out to cause a systemic fungal infection in mice. The mice were randomized into groups of 10 each. Since voriconazole was insoluble in vehicle (physiological saline), the mice of the voriconazole group in the test were injected a commercially available voriconazole (Pfizer, product lot number Z467001), that is, sulfobutyl ether-β-cyclodextrin used as a solubilizer, while other groups used physiological saline as a solvent. After establishing a systemic fungal infection model in mice for 2 hours, each administration group was administered with 5 mg/kg (calculated as voriconazole) drug in the tail vein, with the volume for administration of 0.1 ml/10 g. The mice in the model group were administered 0.1 ml/10 g of 0.9% sodium chloride solution, once daily, for 5 consecutive days. The death situation of the mice was inspected and the survival time was recorded. After a total of 7 days of observation, all dead mice were treated with fire using ethanol.

[9] = system: Candida albicans ATCC10231; assay: Systemic fungal infection in mice, administration by gavage, survival; format: in vivo; settings: ICR mice, 5 mg/kg (calculated as voriconazole) once daily for 5 days
Protocol: as §2, §3
Before the experiment, a small amount of Candida albicans was picked from the SDA medium preserved at 4° C. by inoculation circle, inoculated into 1 ml of YPD culture medium, and cultured at 30° C. while being shaken at 200 rpm for 16 hours to make the fungus in the late stage of exponential growth. Blood cell counting plate was used to count, and the concentration of the broth was adjusted to 1*10^3−5*10^3 CFU/ml with RPMI1640 medium. The Candida albicans monoclone on the SDA plate was picked, inoculated into 1 ml YPD medium, cultured at 35° C., 200 rpm for 16 hours to the late exponential growth phase, 1% of which was then inoculated in fresh medium for 6 hours, centrifuged at 1000×g for 5 mins, washed three times with saline until the supernatant was colorless, while hemocytometer was used to count. The cell concentration was adjusted to 5*10^6/ml. The tail vein injection of 0.1 ml/10 g was carried out to cause a systemic fungal infection in mice. The mice were randomized into groups of 10 each. Voriconazole used was in the form of a suspension prepared with CMC-Na (Shanghai Panhong Chemical Technology Co., Ltd.), while other tested drugs were dissolved in saline and sonicated until clarified for administration. After establishing a systemic fungal infection model in mice for 2 hours, each group was administered by gavage with 5 mg/kg (calculated as voriconazole) drug, with the volume for administration of 0.1 ml/10 g. The mice in the model group were administered 0.1 ml/10 g of 0.9% sodium chloride solution, once daily, for 5 consecutive days. The death situation of the mice was inspected and the survival time was recorded. After a total of 7 days of observation, all dead mice were treated with fire using ethanol.

[10] = voriconazole in plasma, SD rats, tail vein injection, 2.5 mg/kg (calculated as voriconazole)

For `CC(OC(=O)N(C)c1ncccc1COC(=O)[C@@H](N)CCCCN)[n+]1cnn(C[C@](O)(c2ccc(F)cc2F)[C@@H](C)c2ncncc2F)c1.[Cl-]` (some centres unmarked) [QR16017], the Solubility [1] was >50 mg/mL, the “Human plasma T1/2” value [2] was 0.95 ± 0.28 min and the “Human intestinal S9 T1/2” value [3] was 11.25 ± 2.21 min. The “Rat plasma T1/2” value [4] was 0.78 ± 0.86 min, the “Rat intestinal S9 T1/2” value [5] was 15.69 ± 6.95 min and the AUClast [6, 10] was 10259 ± 3285 ng·h/mL. The T1/2 [6, 10] was 167 ± 45 min, the AUClast [7] was 8695 ± 2958 ng·h/mL and the Cmax [7] was 952 ± 421 ng/mL. For the same compound, the T1/2 [7] was 177 ± 75 min, the “survival rate of mice, day 1” value [8] was 100% and the “survival rate of mice, day 2” value [8] was 100%. For the same compound, the “survival rate of mice, day 3” value [8] was 100%, the “survival rate of mice, day 4” value [8] was 100% and the “survival rate of mice, day 5” value [8] was 100%. The “survival rate of mice, day 6” value [8] was 100%, the “survival rate of mice, day 1” value [9] was 100% and the “survival rate of mice, day 2” value [9] was 100%. For the same compound, the “survival rate of mice, day 3” value [9] was 90%, the “survival rate of mice, day 4” value [9] was 90% and the “survival rate of mice, day 5” value [9] was 90%. For the same compound, the “survival rate of mice, day 6” value [9] was 90% and the “survival rate of mice, day 7” value [9] was 80%.

In the case of `CC(OC(=O)N(C)c1ncccc1COC(=O)CN)[n+]1cnn(C[C@](O)(c2ccc(F)cc2F)[C@@H](C)c2ncncc2F)c1.[Cl-]` (some centres unmarked) [QR16001], the Solubility ([1]; deionized water, 25±2°C) was >50 mg/mL, the “Human plasma T1/2” value [2] was 1.56 ± 0.26 min and the “Human intestinal S9 T1/2” value [3] was 10.09 ± 1.75 min. For the same compound, the “Rat plasma T1/2” value [4] was 1.23 ± 0.45 min, the “Rat intestinal S9 T1/2” value [5] was 10.15 ± 2.65 min and the AUClast ([6]; rat, in vivo, 2.5 mg/kg) was 10515 ± 1985 ng·h/mL. It also gave a T1/2 ([6]; rat, in vivo, 2.5 mg/kg) of 128 ± 58.8 min, an AUClast [7] of 8562 ± 1125 ng·h/mL and a Cmax [7] of 789 ± 362 ng/mL. For the same compound, the T1/2 [7] was 193 ± 76.8 min, the “survival rate of mice, day 1” value [8] was 100% and the “survival rate of mice, day 2” value [8] was 100%. For the same compound, the “survival rate of mice, day 3” value [8] was 100%, the “survival rate of mice, day 4” value [8] was 100% and the “survival rate of mice, day 5” value [8] was 100%. For the same compound, the “survival rate of mice, day 6” value [8] was 100%, the “survival rate of mice, day 1” value [9] was 100% and the “survival rate of mice, day 2” value [9] was 100%. The “survival rate of mice, day 3” value [9] was 100%, the “survival rate of mice, day 4” value [9] was 100% and the “survival rate of mice, day 5” value [9] was 90%. For the same compound, the “survival rate of mice, day 6” value [9] was 80% and the “survival rate of mice, day 7” value [9] was 80%.

In the case of `CC(OC(=O)N(C)c1ncccc1COC(=O)C(N)CO)[n+]1cnn(CC(O)(c2ccc(F)cc2F)C(C)c2ncncc2F)c1.Cl.Cl.[Cl-]` (centres unmarked) [QR16015], the Solubility ([1]; deionized water, 25±2°C) was >50 mg/mL, the “Human plasma T1/2” value [2] was 2.05 ± 0.26 min and the “Human intestinal S9 T1/2” value [3] was 12.72 ± 1.72 min. For the same compound, the “Rat plasma T1/2” value [4] was 1.58 ± 0.95 min, the “Rat intestinal S9 T1/2” value [5] was 15.95 ± 4.96 min and the AUClast ([6]; rat, in vivo, 2.5 mg/kg) was 10526 ± 2695 ng·h/mL. For the same compound, the T1/2 ([6]; rat, in vivo, 2.5 mg/kg) was 171 ± 107 min, the AUClast [7] was 8144 ± 1468 ng·h/mL and the Cmax [7] was 996 ± 365 ng/mL. For the same compound, the T1/2 [7] was 167 ± 73.8 min, the “survival rate of mice, day 1” value [8] was 100% and the “survival rate of mice, day 2” value [8] was 100%. For the same compound, the “survival rate of mice, day 3” value [8] was 100%, the “survival rate of mice, day 4” value [8] was 100% and the “survival rate of mice, day 5” value [8] was 100%. The “survival rate of mice, day 6” value [8] was 90%, the “survival rate of mice, day 1” value [9] was 100% and the “survival rate of mice, day 2” value [9] was 100%. The “survival rate of mice, day 3” value [9] was 100%, the “survival rate of mice, day 4” value [9] was 100% and the “survival rate of mice, day 5” value [9] was 100%. The “survival rate of mice, day 6” value [9] was 80% and the “survival rate of mice, day 7” value [9] was 80%.

For `CC(O)C(N)C(=O)OCc1cccnc1N(C)C(=O)OC(C)[n+]1cnn(CC(O)(c2ccc(F)cc2F)C(C)c2ncncc2F)c1.Cl.Cl.[Cl-]` (centres unmarked) [QR16016], the Solubility ([1]; deionized water, 25±2°C) was >50 mg/mL, the “Human plasma T1/2” value [2] was 2.12 ± 1.07 min and the “Human intestinal S9 T1/2” value [3] was 15.72 ± 0.98 min. For the same compound, the “Rat plasma T1/2” value [4] was 1.95 ± 0.87 min, the “Rat intestinal S9 T1/2” value [5] was 19.62 ± 3.69 min and the AUClast ([6]; rat, in vivo, 2.5 mg/kg) was 10477 ± 1854 ng·h/mL. It also gave a T1/2 ([6]; rat, in vivo, 2.5 mg/kg) of 159 ± 52.8 min, an AUClast [7] of 8332 ± 3254 ng·h/mL and a Cmax [7] of 885 ± 344 ng/mL. For the same compound, the T1/2 [7] was 134 ± 75 min, the “survival rate of mice, day 1” value [8] was 100% and the “survival rate of mice, day 2” value [8] was 100%. For the same compound, the “survival rate of mice, day 3” value [8] was 100%, the “survival rate of mice, day 4” value [8] was 100% and the “survival rate of mice, day 5” value [8] was 100%. The “survival rate of mice, day 6” value [8] was 90%, the “survival rate of mice, day 1” value [9] was 100% and the “survival rate of mice, day 2” value [9] was 100%. For the same compound, the “survival rate of mice, day 3” value [9] was 90%, the “survival rate of mice, day 4” value [9] was 90% and the “survival rate of mice, day 5” value [9] was 90%. The “survival rate of mice, day 6” value [9] was 90% and the “survival rate of mice, day 7” value [9] was 80%.
